Laboratory results published in patent US9624182B2, “Compounds as lysophosphatidic acid receptor antagonists” (Amira Pharmaceuticals, Inc., priority 2009, dated 2017).

Molecular target: T1, human LPA1 (Homo sapiens, UniProt Q92633)
T1 construct: the full-length cDNA for human LPA1 was obtained by PCR of the reverse transcription reaction; expressed in transfected cells
Experiment: LPA1 calcium flux assay
Format: cell-based
Conditions: CHO cells expressing human LPA1, stimulated with 10 nM LPA; read-out: HLPA1 Ca Flux IC50
Outline: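 Antagonism measured as block of 10 nM LPA-evoked calcium rise in stable human LPA1-CHO cells. After overnight serum-free culture and 1 h dye loading at 37 °C (buffer with 0.3% fatty-acid-free albumin), compound was added for 30 min at room temperature. Titration curves gave IC50.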

T1 sequence (Q92633 whole entry): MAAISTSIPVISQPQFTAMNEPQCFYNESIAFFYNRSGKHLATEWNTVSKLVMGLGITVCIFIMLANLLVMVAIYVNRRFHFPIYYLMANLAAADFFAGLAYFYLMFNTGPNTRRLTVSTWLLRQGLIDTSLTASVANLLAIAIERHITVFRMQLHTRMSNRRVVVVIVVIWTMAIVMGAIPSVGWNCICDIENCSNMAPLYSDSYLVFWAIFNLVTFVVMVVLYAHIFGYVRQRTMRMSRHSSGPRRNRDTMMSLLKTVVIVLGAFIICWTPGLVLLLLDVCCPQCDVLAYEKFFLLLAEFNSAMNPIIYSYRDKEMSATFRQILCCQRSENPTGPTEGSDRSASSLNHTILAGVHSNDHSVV

SMILES | IC50 [nM]
CC(C)=CCCC(C)Nc1c(C)noc1-c1ccc(-c2ccc(C3(CC(=O)O)CC3)cc2)cc1 (centres unmarked) [Compound 1-204, (1-{4′-[4-(1,5-Dimethyl-hex-4-enylamino)-3-methyl-isoxazol-5-yl]-biphenyl-4-yl}-cyclopropyl)-acetic acid] | < 300
CC(C)=CCCC(C)Nc1c(C)noc1-c1ccc(-c2ccc(C3(C(=O)O)CC3)cc2)cc1 (centres unmarked) [Compound 1-205, 1-{4′-[4-(1,5-Dimethyl-hex-4-enylamino)-3-methyl-isoxazol-5-yl]-biphenyl-4-yl}-cyclopropanecarboxylic acid] | < 300
Cc1noc(-c2ccc(-c3ccc(C4(CC(=O)O)CC4)cc3)cc2)c1NC(C)c1ccc2ccccc2c1 (centres unmarked) [Compound 1-206, (1-{4′-[3-Methyl-4-(1-naphthalen-2-yl-ethylamino)-isoxazol-5-yl]-biphenyl-4-yl}-cyclopropyl)-acetic acid] | < 300
Cc1noc(-c2ccc(-c3ccc(C4(CC(=O)O)CC4)cc3)cc2)c1C(O)CCCCc1ccccc1 (centres unmarked) [Compound 1-207, (1-{4′-[4-(1-Hydroxy-5-phenyl-pentyl)-3-methyl-isoxazol-5-yl]-biphenyl-4-yl}-cyclopropyl)-acetic acid] | < 300
Cc1noc(-c2ccc(-c3ccc(C4(CC(=O)O)CC4)cc3)cc2)c1C(O)CCCCc1ccc(Cl)c(Cl)c1 (centres unmarked) [Compound 1-208, [1-(4′-{4-[5-(3,4-Dichloro-phenyl)-1-hydroxy-pentyl]-3-methyl-isoxazol-5-yl}-biphenyl-4-yl)-cyclopropyl]-acetic acid] | < 300
COc1ccc(CCC(C)Nc2c(C)noc2-c2ccc(-c3ccc(C4(CC(=O)O)CC4)cc3)cc2)cc1 (centres unmarked) [Compound 1-211, [1-(4′-{4-[3-(4-Methoxy-phenyl)-1-methyl-propylamino]-3-methyl-isoxazol-5-yl}-biphenyl-4-yl)-cyclopropyl]-acetic acid] | 300 to 1000
Cc1noc(-c2ccc(-c3ccc(C4(C(=O)O)CC4)cc3)cc2)c1Nc1ncnc2scc(C)c12 [Compound 1-212, 1-{4′-[3-Methyl-4-(5-methyl-thieno[2,3-d]pyrimidin-4-ylamino)-isoxazol-5-yl]-biphenyl-4-yl}-cyclopropanecarboxylic acid] | 1000 to 50000
Cc1noc(-c2ccc(-c3ccc(C4(CC(=O)O)CC4)cc3)cc2)c1NC(CCc1ccccc1)c1ccccc1 (centres unmarked) [Compound 1-213, (1-{4′-[4-(1,3-Diphenyl-propylamino)-3-methyl-isoxazol-5-yl]-biphenyl-4-yl}-cyclopropyl)-acetic acid] | 300 to 1000
Cc1noc(-c2ccc(-c3ccc(C4(C(=O)O)CC4)cc3)cc2)c1NC(CCc1ccccc1)c1ccccc1 (centres unmarked) [Compound 1-214, 1-{4′-[4-(1,3-Diphenyl-propylamino)-3-methyl-isoxazol-5-yl]-biphenyl-4-yl}-cyclopropanecarboxylic acid] | 300 to 1000
Cc1noc(-c2ccc(-c3ccc(C4CC4C(=O)O)cc3)cc2)c1[C@@H](O)COCc1ccccc1 (stereo partly drawn) [Compound 1-215, (cis)-2-{4′-[4-((R)-2-Benzyloxy-1-hydroxy-ethyl)-3-methyl-isoxazol-5-yl]-biphenyl-4-yl}-cyclopropanecarboxylic acid] | < 300
Cc1noc(-c2ccc(-c3ccc(C4(CC(=O)O)CC4)cc3)cc2)c1NC(C)CCc1ccc(Cl)cc1 (centres unmarked) [Compound 1-218, [1-(4′-{4-[3-(4-Chloro-phenyl)-1-methyl-propylamino]-3-methyl-isoxazol-5-yl}-biphenyl-4-yl)-cyclopropyl]-acetic acid] | < 300
Cc1noc(-c2ccc(-c3ccc(C4(CC(=O)O)CC4)cc3)cc2)c1NC(C)CCc1c(F)cccc1Cl (centres unmarked) [Compound 1-219, [1-(4′-{4-[3-(2-Chloro-6-fluoro-phenyl)-1-methyl-propylamino]-3-methyl-isoxazol-5-yl}-biphenyl-4-yl)-cyclopropyl]-acetic acid] | < 300
Cc1noc(-c2ccc(-c3ccc(C4(CC(=O)O)CC4)cc3)cc2)c1NC(C)CCc1ccccc1Cl (centres unmarked) [Compound 1-222, [1-(4′-{4-[3-(2-Chloro-phenyl)-1-methyl-propylamino]-3-methyl-isoxazol-5-yl}-biphenyl-4-yl)-cyclopropyl]-acetic acid] | < 300
C=CCCC(C)Nc1c(C)noc1-c1ccc(-c2ccc(C3(CC(=O)O)CC3)cc2)cc1 (centres unmarked) [Compound 1-226, (1-{4′-[3-Methyl-4-(1-methyl-pent-4-enylamino)-isoxazol-5-yl]-biphenyl-4-yl}-cyclopropyl)-acetic acid] | 300 to 1000
C=CCCC(C)Nc1c(C)noc1-c1ccc(-c2ccc(C3(C(=O)O)CC3)cc2)cc1 (centres unmarked) [Compound 1-227, 1-{4′-[3-Methyl-4-(1-methyl-pent-4-enylamino)-isoxazol-5-yl]-biphenyl-4-yl}-cyclopropanecarboxylic acid] | < 300
C=CCCC(C)Nc1c(C)noc1-c1ccc(-c2ccccc2CC(=O)O)cc1 (centres unmarked) [Compound 1-228, {4′-[3-Methyl-4-(1-methyl-pent-4-enylamino)-isoxazol-5-yl]-biphenyl-2-yl}-acetic acid] | 1000 to 50000

SMILES | IC50 [nM]
Cc1noc(-c2ccc(-c3ccc(C4(CC(=O)O)CC4)cc3)cc2)c1NC(C)CCCO (centres unmarked) [Compound 1-229, (1-{4′-[4-(4-Hydroxy-1-methyl-butylamino)-3-methyl-isoxazol-5-yl]-biphenyl-4-yl}-cyclopropyl)-acetic acid] | > 50000
Cc1noc(-c2ccc(-c3ccc(C4(C(=O)O)CC4)cc3)cc2)c1NC(C)CCCO (centres unmarked) [Compound 1-230, 1-{4′-[4-(4-Hydroxy-1-methyl-butylamino)-3-methyl-isoxazol-5-yl]-biphenyl-4-yl}-cyclopropanecarboxylic acid] | 1000 to 50000
Cc1noc(-c2ccc(-c3ccccc3CC(=O)O)cc2)c1NC(C)CCCO (centres unmarked) [Compound 1-231, {4′-[4-(4-Hydroxy-1-methyl-butylamino)-3-methyl-isoxazol-5-yl]-biphenyl-2-yl}-acetic acid] | 1000 to 50000
Cc1noc(-c2ccc(-c3ccccc3CC(=O)O)cc2)c1NC(C)CCc1ccc2c(c1)OCO2 (centres unmarked) [Compound 1-232, {4′-[4-(3-Benzo[1,3]dioxol-5-yl-1-methyl-propylamino)-3-methyl-isoxazol-5-yl]-biphenyl-2-yl}-acetic acid] | > 50000
Cc1noc(-c2ccc(-c3ccc(C4(CC(=O)O)CC4)cc3)cc2)c1NC(C)CCc1ccc2c(c1)OCO2 (centres unmarked) [Compound 1-233, (1-{4′-[4-(3-Benzo[1,3]dioxol-5-yl-1-methyl-propylamino)-3-methyl-isoxazol-5-yl]-biphenyl-4-yl}-cyclopropyl)-acetic acid] | < 300
COc1ccc(CC(C)Nc2c(C)noc2-c2ccc(-c3ccc(C4(CC(=O)O)CC4)cc3)cc2)cc1 (centres unmarked) [Compound 1-236, [1-(4′-{4-[2-(4-Methoxy-phenyl)-1-methyl-ethylamino]-3-methyl-isoxazol-5-yl}-biphenyl-4-yl)-cyclopropyl]-acetic acid] | 1000 to 50000
COc1ccc(CC(C)Nc2c(C)noc2-c2ccc(-c3ccc(C4(C(=O)O)CC4)cc3)cc2)cc1 (centres unmarked) [Compound 1-237] | 1000 to 50000
COc1ccc(CC(C)Nc2c(C)noc2-c2ccc(-c3ccccc3CC(=O)O)cc2)cc1 (centres unmarked) [Compound 1-238, (4′-{4-[2-(4-Methoxy-phenyl)-1-methyl-ethylamino]-3-methyl-isoxazol-5-yl}-biphenyl-2-yl)-acetic acid] | 1000 to 50000
Cc1noc(-c2ccc(-c3ccc(CC(=O)O)cc3)cc2)c1C(O)COCc1cccc(C(F)(F)F)c1 (centres unmarked) [Compound 1-241, (4′-{4-[1-Hydroxy-2-(3-trifluoromethyl-benzyloxy)-ethyl]-3-methyl-isoxazol-5-yl}-biphenyl-4-yl)-acetic acid] | 1000 to 50000
Cc1noc(-c2ccc(-c3ccc(CCC(=O)O)cc3)cc2)c1C(O)COCc1cccc(C(F)(F)F)c1 (centres unmarked) [Compound 1-242, 3-(4′-{4-[1-Hydroxy-2-(3-trifluoromethyl-benzyloxy)-ethyl]-3-methyl-isoxazol-5-yl}-biphenyl-4-yl)-propionic acid] | 300 to 1000
Cc1noc(-c2ccc(-c3ccc(C4(CC(=O)O)CC4)cc3)cc2)c1C(O)COCc1cccc(C(F)(F)F)c1 (centres unmarked) [Compound 1-244, [1-(4′-{4-[1-Hydroxy-2-(3-trifluoromethyl-benzyloxy)-ethyl]-3-methyl-isoxazol-5-yl}-biphenyl-4-yl)-cyclopropyl]-acetic acid] | < 300
Cc1noc(-c2ccc(-c3ccc(C(=O)CCC(=O)O)cc3)cc2)c1C(O)CCCc1ccccc1 (centres unmarked) [Compound 1-245, 4-{4′-[4-(1-Hydroxy-4-phenyl-butyl)-3-methyl-isoxazol-5-yl]-biphenyl-4-yl}-4-oxo-butyric acid] | 1000 to 50000
Cc1noc(-c2ccc(-c3ccc(C4(CC(=O)O)CC4)cc3)cc2)c1C(O)CC(C)(C)c1ccccc1 (centres unmarked) [Compound 1-246, (1-{4′-[4-(1-Hydroxy-3-methyl-3-phenyl-butyl)-3-methyl-isoxazol-5-yl]-biphenyl-4-yl}-cyclopropyl)-acetic acid] | 1000 to 50000
COc1ccc(CCC(O)c2c(C)noc2-c2ccc(-c3ccc(C4(CC(=O)O)CC4)cc3)cc2)cc1 (centres unmarked) [Compound 1-247, [1-(4′-{4-[1-Hydroxy-3-(4-methoxy-phenyl)-propyl]-3-methyl-isoxazol-5-yl}-biphenyl-4-yl)-cyclopropyl]-acetic acid] | 1000 to 50000
Cc1noc(-c2ccc(-c3ccc(C4(C(=O)O)CC4)cc3)cc2)c1C(O)C(=O)NCCc1ccccc1 (centres unmarked) [Compound 1-249, 1-{4′-[4-(Hydroxy-phenethylcarbamoyl-methyl)-3-methyl-isoxazol-5-yl]-biphenyl-4-yl}-cyclopropanecarboxylic acid] | < 300
Cc1noc(-c2ccc(-c3ccc(CC4(C(=O)O)CC4)cc3)cc2)c1C(O)CCCc1ccccc1 (centres unmarked) [Compound 1-250, 1-{4′-[4-(1-Hydroxy-4-phenyl-butyl)-3-methyl-isoxazol-5-yl]-biphenyl-4-ylmethyl}-cyclopropanecarboxylic acid] | < 300
